From patent US20220073496A1, “NOVEL QUINOLINE DERIVATIVE INHIBITOR” (Nanjing Transthera Biosciences Co., Ltd., priority 2018, published 2022)

What was measured:
TrkA (h) = molecular target: T1, TrkA (h) (Homo sapiens, UniProt P04629); assay: Enzymatic activity test, TrkA (h); assay type: biochemical; conditions: 10 μM [γ-33P]-ATP, 40 minutes, room temperature
T1 construct: purchased
Procedure: (§1) Assay 4: Enzymatic Activity Test of the Compound of the Present Invention
(§2) Test substances: the compounds of the present invention, wherein the structures and preparations thereof were as described above.
(§3) Preparation of the Compound Stock Solution
(§4) The compound was dissolved in 100% DMSO to prepare a stock solution with a maximum concentration of 500 μM.
(§5) Preparation of the Compound Working Solution
(§6) The compound stock solution was diluted to final concentrations of 500, 150, 50, 15. 5, 1.5, 0.5, 0.15 and 0.05 μM to become the compound working solutions (50×).
(§7) Preparation of Different Enzyme Reaction Solutions
The TrkA (h) enzyme was dissolved in 8 mM MOPS (pH 7.0), 0.2 mM EDTA, and 250 μM KKKSPGEYVNIEFG to prepare an enzyme solution having a final concentration of 1.7 nM. The enzymatic reaction was activated by using 10 mM magnesium acetate and 10 μM [γ-^33P]-ATP to form an Mg/ATP mixed solution.
(§8) In a 384-well plate, the compound working solution was added to final concentrations of 10000, 3000, 1000, 300, 100, 30, 10, 3, and 1 nM. Then different enzyme reaction solutions prepared according to the above conditions were added. The incubation was carried out for 40 minutes at room temperature. The test was terminated by the addition of a 0.5% phosphoric acid solution. 10 μL of the reaction solution was taken and dropped to the P30 filter paper. The filter paper was washed 4 times with 0.425% phosphoric acid solution and once with methanol, and then placed on a scintillation counter. The […] IC50 values were calculated using GraphPad 5.0 software.

TrkB (h) = molecular target: T2, TrkB (h) (Homo sapiens, UniProt Q16620); assay: Enzymatic activity test, TrkB (h); assay type: biochemical; conditions: 10 μM [γ-33P]-ATP, 40 minutes, room temperature
T2 construct: purchased
Procedure: as §1, §2, §3, §4, §5, §6, §7
The TrkB (h) enzyme was dissolved in 8 mM MOPS (pH 7.0), 0.2 mM EDTA, and 0.1 mg/mL poly(Glu, Tyr) 4:1 to prepare an enzyme solution having a final concentration of 3.1 nM. The enzymatic reaction was activated by using 10 mM magnesium acetate and 10 μM [γ-^33P]-ATP to form an Mg/ATP mixed solution,
as §8

TrkC (h) = molecular target: T3, TrkC (h) (Homo sapiens, UniProt Q16288); assay: Enzymatic activity test, TrkC (h); assay type: biochemical; conditions: 10 μM [γ-33P]-ATP, 40 minutes, room temperature
T3 construct: purchased
Procedure: as §1, §2, §3, §4, §5, §6, §7
The TrkC (h) enzyme was dissolved in 8 mM MOPS (pH 7.0), 0.2 mM EDTA, and 500 μM GEEPLYWSFPAKKK to prepare an enzyme solution having a final concentration of 38 nM. The enzymatic reaction was activated by using 10 mM magnesium acetate and 10 μM [γ-^33P]-ATP to form an Mg/ATP mixed solution.
as §8

[1] = molecular target: T4, pCSF1R in CSF1R plasmid-transfected HEK293T cells (Homo sapiens, UniProt P07333); assay: Inhibitory activity on the cell pCSF1R (Western Blot); assay type: cell-based; conditions: compound 30, 100, 300, 1000 nM, 120 minutes
T4 construct: expressed in transfected cells; host or cells: HEK293T
Procedure: Assay 7: Test for Inhibitory Activities of the Compounds of the Present Invention on the Cell pCSF1R
HEK293T is a human renal epithelial cell.
(§9) Test substances: the compounds of the present invention, wherein the structures thereof were as described above.
Test equipment: protein electrophoresis apparatus (manufactured by Bio Rad), transfer unit (manufactured by Bio Rad), exposure unit (manufactured by Tanon), CO2 cell incubator (manufactured by Thermo).
The BEK293T cells were inoculated in a 6-well plate (containing 10% FBS DMEM medium, 4×10^5 cells per well), and adherent cells were cultivated at 37° C. in a 5% CO2 condition for 6 hours. Each well was transfected with 2 μg CSF1R plasmid, and the cells were cultivated at 37° C. in a 5% CO2 condition overnight. At 24 hours after transfection, different concentrations of compounds were added to the administration group. The final compound concentrations were 30, 100, 300, and 1000 nM, and the final DMSO content was 1‰. The negative control wells contained the medium containing 1‰ DMSO. […] The inhibitory activity of the compound on the cell pCSF1R was examined.

Ba/F3 LMNA-NTRK1 cells = molecular target: T5, Ba/F3 LMNA-NTRK1 cells (Homo sapiens, UniProt P04629); assay: Cell viability test (CTG), Ba/F3 LMNA-NTRK1; assay type: cell-based; conditions: NTRK1 wild type cell, 72 hours, read-out: IC50 Ba/F3 LMNA-NTRK1
T5 construct: fused on or other part: P02545 (Prelamin-A/C)
Procedure: (§10) Assay 8: Cell viability test of the compounds of the present invention
Ba/F3 LMNA-NTRK1 is an NTRK1 wild type cell;
as §9
(§11) Test instrument: SpectraMax multi-label microplate reader.
(§12) Each cell was inoculated in a 96-well plate and adherent cells were cultivated overnight. Different concentrations of the compounds (9 dose groups, 3.16 times DMSO serial dilution) were added to give the final concentration of 0.1-1000 nM, and the final DMSO content was 1‰. The negative control wells contained the medium containing 1‰ DMSO. The cells were incubated at 37° C. in a condition of 5% CO2 and 95% humidity for 72 hours for use. An equal volume of CTG reagent was added to each well, and the cells were lysed by shaking for 5 minutes on an orbital shaker, and incubated for 20 minutes at room temperature to stabilize the cold light signal. The cold light signal was read with a microplate reader. Data were analyzed using GraphPad Prism 5.0 software, and data were fitted using nonlinear S-curve regression to derive a dose-response curve and thereby calculate IC50 values.

Ba/F3 ETV6-NTRK2 cells = molecular target: T6, Ba/F3 ETV6-NTRK2 cells (Homo sapiens, UniProt Q16620); assay: Cell viability test (CTG), Ba/F3 ETV6-NTRK2; assay type: cell-based; conditions: NTRK2 wild type cell, 72 hours, read-out: IC50 Ba/F3 ETV6-NTRK2
T6 construct: fused on or other part: P41212 (Transcription factor ETV6)
Procedure: as §10
Ba/F3 ETV6-NTRK2 is an NTRK 2 wild type cell;
as §9, §11, §12

[2] = molecular target: T7, Ba/F3 LMNA-NTRK1 G667C cells (Homo sapiens, UniProt P04629, G667C, cells depend on it); assay: Cell viability test (CTG), Ba/F3 LMNA-NTRK1 G667C; assay type: cell-based; conditions: NTRK1 gene mutant cell, 72 hours, read-out: IC50 Ba/F3 LMNA-NTRK1 G667C
T7 construct: Ba/F3 LMNA-NTRK1 G667C and Ba/F3 LMNA-NTRK1-V573M are NTRK1 gene mutant cells; fused on or other part: P02545 (Prelamin-A/C)
Description: as §10
(§13) Ba/F3 LMNA-NTRK1 G667C and Ba/F3 LMNA-NTRK1-V573M are NTRK1 gene mutant cells.
as §9, §11, §12

[3] = molecular target: T8, Ba/F3 LMNA-NTRK1-V573M cells (Homo sapiens, UniProt P04629, V573M, cells depend on it); assay: Cell viability test (CTG), Ba/F3 LMNA-NTRK1-V573M; assay type: cell-based; conditions: NTRK1 gene mutant cell, 72 hours, read-out: IC50 Ba/F3 LMNA-NTRK1-V573M
T8 construct: Ba/F3 LMNA-NTRK1 G667C and Ba/F3 LMNA-NTRK1-V573M are NTRK1 gene mutant cells; fused on or other part: P02545 (Prelamin-A/C)
Description: as §10, §13, §9, §11, §12

T3 sequence (Q16288 32-839): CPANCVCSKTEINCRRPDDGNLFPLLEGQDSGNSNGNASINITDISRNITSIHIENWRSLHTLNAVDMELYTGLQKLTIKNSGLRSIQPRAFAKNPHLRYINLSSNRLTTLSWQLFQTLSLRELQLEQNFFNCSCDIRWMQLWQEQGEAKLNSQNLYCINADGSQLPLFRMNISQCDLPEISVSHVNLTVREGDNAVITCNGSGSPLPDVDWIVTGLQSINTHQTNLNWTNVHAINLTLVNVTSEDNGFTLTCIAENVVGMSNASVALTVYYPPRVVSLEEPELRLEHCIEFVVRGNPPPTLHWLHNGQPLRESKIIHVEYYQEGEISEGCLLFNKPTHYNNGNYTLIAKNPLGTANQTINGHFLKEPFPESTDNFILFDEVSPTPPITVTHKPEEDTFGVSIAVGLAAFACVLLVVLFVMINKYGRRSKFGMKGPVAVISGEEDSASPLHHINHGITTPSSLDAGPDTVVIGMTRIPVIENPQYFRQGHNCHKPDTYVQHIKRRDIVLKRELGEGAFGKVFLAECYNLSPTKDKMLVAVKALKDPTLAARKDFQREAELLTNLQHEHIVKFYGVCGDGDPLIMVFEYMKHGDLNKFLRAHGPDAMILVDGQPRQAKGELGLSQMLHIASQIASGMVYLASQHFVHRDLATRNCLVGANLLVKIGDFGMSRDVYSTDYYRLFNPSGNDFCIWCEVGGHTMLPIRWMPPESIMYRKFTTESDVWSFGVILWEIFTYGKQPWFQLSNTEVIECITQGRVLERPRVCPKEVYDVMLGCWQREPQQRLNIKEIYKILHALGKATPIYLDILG
T5 sequence (P04629 whole entry, change not shown, the tested form may be a part): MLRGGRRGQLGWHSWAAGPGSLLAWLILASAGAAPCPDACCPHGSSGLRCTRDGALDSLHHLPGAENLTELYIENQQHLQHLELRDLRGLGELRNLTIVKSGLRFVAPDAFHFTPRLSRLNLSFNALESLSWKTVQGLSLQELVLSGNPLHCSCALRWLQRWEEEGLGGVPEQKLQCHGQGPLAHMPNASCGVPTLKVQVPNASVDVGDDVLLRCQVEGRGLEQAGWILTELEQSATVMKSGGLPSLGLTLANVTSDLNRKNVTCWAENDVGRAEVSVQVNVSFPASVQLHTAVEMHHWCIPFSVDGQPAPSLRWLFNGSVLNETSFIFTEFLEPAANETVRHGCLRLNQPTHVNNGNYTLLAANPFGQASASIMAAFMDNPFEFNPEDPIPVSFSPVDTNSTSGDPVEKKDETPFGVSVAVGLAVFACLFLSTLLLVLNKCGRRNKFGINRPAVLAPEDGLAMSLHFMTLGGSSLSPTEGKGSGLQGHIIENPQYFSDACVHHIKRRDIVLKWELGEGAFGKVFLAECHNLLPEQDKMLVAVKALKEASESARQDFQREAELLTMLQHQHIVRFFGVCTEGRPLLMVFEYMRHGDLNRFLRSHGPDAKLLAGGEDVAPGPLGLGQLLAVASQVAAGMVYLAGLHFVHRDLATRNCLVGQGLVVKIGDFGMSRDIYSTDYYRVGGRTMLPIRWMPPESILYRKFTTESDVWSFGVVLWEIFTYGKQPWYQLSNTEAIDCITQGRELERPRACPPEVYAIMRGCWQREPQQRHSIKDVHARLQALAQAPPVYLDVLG
T2 sequence (Q16620 32-822): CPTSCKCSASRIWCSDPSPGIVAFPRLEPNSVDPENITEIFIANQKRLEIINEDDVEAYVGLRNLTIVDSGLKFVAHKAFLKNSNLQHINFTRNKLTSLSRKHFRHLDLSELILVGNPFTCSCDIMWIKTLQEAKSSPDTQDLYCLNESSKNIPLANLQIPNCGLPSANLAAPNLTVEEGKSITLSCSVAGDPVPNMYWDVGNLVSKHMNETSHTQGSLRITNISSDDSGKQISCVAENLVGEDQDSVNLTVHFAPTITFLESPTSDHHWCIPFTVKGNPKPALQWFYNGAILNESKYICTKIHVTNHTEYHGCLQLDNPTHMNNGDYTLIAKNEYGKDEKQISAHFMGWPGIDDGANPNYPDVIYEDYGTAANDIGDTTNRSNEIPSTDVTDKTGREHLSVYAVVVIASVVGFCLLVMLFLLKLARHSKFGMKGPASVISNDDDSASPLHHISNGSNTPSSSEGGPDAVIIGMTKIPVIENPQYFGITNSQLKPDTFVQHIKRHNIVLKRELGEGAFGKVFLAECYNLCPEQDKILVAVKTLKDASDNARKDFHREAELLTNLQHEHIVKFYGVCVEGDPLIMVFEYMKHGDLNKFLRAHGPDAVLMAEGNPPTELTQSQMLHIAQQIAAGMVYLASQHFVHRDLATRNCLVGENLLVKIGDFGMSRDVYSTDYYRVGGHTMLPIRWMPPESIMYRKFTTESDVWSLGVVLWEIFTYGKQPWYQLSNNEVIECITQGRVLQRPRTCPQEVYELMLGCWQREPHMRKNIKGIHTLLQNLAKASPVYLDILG
T8 sequence (P04629 whole entry V573M, the tested form may be a part): as the sequence (P04629 whole entry, change not shown, the tested form may be a part) above, with V573M counted along it
T1 sequence (P04629 33-796): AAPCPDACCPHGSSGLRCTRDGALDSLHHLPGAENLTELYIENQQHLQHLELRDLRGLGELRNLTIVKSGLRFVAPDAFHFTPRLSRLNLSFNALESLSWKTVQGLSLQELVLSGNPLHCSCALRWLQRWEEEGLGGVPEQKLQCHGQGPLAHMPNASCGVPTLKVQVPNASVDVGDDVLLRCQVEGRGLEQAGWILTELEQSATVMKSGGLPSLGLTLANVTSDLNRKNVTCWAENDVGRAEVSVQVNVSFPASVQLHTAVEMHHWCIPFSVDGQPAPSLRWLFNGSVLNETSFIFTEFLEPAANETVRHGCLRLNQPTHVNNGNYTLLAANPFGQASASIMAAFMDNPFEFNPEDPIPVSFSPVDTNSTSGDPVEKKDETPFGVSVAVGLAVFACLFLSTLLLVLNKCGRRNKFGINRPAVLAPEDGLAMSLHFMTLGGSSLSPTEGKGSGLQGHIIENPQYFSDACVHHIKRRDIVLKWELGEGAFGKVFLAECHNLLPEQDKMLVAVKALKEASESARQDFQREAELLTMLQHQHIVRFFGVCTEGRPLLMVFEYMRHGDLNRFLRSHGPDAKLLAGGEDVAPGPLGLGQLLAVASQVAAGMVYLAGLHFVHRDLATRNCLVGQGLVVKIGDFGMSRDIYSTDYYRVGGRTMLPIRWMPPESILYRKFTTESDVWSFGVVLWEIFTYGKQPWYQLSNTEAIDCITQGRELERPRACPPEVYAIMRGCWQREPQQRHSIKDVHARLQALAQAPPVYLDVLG
T7 sequence (P04629 whole entry G667C, the tested form may be a part): as the sequence (P04629 whole entry, change not shown, the tested form may be a part) above, with G667C counted along it
T6 sequence (Q16620 whole entry, change not shown, the tested form may be a part): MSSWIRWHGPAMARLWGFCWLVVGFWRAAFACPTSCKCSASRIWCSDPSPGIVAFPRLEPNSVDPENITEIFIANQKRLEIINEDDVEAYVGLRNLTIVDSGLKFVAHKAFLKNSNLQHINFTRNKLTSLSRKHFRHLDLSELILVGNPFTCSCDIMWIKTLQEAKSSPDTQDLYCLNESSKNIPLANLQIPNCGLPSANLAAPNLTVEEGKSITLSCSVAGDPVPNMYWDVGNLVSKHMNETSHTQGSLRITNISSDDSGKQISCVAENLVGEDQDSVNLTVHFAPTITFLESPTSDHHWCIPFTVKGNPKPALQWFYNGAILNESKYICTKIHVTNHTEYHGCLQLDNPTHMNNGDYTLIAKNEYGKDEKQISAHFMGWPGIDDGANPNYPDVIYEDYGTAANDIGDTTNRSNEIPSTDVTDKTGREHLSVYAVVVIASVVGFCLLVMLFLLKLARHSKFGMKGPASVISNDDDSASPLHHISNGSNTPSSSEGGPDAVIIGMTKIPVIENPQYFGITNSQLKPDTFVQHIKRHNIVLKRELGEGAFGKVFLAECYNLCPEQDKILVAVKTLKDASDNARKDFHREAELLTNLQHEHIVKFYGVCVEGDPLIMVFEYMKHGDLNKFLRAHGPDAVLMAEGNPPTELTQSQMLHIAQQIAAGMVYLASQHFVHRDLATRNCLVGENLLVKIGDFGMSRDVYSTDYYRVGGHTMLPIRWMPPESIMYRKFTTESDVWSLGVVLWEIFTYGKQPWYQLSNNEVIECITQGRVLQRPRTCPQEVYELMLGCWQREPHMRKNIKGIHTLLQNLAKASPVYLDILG
T4 sequence (P07333 20-972): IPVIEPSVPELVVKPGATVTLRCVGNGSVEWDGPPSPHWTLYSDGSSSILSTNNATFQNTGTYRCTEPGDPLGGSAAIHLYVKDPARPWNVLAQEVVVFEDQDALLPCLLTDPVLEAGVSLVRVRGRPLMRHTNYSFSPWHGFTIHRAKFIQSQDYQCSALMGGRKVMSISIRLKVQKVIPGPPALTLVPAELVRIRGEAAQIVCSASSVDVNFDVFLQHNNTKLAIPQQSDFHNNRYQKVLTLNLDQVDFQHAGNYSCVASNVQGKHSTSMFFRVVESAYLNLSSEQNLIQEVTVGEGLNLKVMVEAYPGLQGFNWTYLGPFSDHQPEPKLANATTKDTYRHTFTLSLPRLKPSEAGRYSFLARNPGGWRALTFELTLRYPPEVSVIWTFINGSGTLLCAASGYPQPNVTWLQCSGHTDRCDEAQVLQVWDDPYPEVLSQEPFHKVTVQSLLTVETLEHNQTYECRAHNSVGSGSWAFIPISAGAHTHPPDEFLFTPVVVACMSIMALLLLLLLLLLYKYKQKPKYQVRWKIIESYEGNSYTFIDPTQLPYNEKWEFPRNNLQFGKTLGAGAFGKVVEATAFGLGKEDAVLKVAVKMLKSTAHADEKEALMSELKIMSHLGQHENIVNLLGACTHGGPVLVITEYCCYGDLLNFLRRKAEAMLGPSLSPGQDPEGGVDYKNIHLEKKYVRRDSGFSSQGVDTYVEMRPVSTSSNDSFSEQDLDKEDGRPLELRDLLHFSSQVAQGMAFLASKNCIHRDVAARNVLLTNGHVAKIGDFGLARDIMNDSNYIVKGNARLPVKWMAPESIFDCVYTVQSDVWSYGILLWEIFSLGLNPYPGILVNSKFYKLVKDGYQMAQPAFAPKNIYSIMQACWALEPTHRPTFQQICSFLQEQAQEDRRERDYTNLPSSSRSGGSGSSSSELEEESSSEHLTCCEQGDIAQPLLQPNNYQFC

Structure (SMILES)	IC50 (TrkA (h)) [nM]	IC50 (TrkB (h)) [nM]	IC50 (TrkC (h)) [nM]	IC50 [1] [nM]	GI50 (Ba/F3 LMNA-NTRK1 cells) [nM]	GI50 (Ba/F3 ETV6-NTRK2 cells) [nM]	GI50 [2] [nM]	GI50 [3] [nM]
COc1cc2nccc(Oc3ccc(NC(=O)c4nn(C(C)C)cc(-c5ccc(F)cc5)c4=O)nc3)c2cc1OC [Compound 15, N-(5-((6,7-dimethoxyquinolin-4-yl)oxy)pyridin-2-yl)-5-(4-fluorophenyl)-1-isopropyl-4-oxo-1,4-dihydropyridazine-3-carboxamide]	6	3	6	100 to 300	3.28	16.4	0.09	0.51
COc1cc2nccc(Oc3ccc(NC(=O)c4nn(C5CC5)cc(-c5ccc(F)cc5)c4=O)nc3)c2cc1OC [Compound 31]	3	3	3	30 to 100	17.3		1.4	1.4
COc1cc2nccc(Oc3cnc(NC(=O)c4nn(C5CC5)cc(-c5ccc(F)cc5)c4=O)nc3)c2cc1OC [Compound 33]	13	8	5		73		3	6
COc1cc2nccc(Oc3ncc(NC(=O)c4nn(C(C)C)cc(-c5ccc(F)cc5)c4=O)cn3)c2cc1OC [Compound 34, N-(2-((6,7-dimethoxyquinolin-4-yl)oxy)pyrimidine-5-yl)-5-para-fluorophenyl-1-isopropyl-4-oxo-1,4-dihydropyridazine-3-carboxamide]	5	3	6		14.3	109	0.68	2.7
COc1cc2nccc(Oc3ccc(NC(=O)c4nn(C5CC5)cc(-c5ccc(F)cc5)c4=O)cn3)c2cc1OC [Compound 36]	2	4	3					
COc1cc2nccc(Oc3ncc(NC(=O)c4nn(C5CC5)cc(-c5ccc(F)cc5)c4=O)cn3)c2cc1OC [Compound 37, 1-cyclopropyl-N-(2-((6,7-dimethoxyquinolin-4-yl)oxy)pyrimidine-5-yl)-5-para-fluorophenyl-4-oxo-1,4-dihydropyridazine-3-carboxamide]	7	6	4					

Second part, led by results:

IC50 (TrkA (h)) [nM]	IC50 (TrkB (h)) [nM]	IC50 (TrkC (h)) [nM]	IC50 [1] [nM]	Structure (SMILES)	GI50 (Ba/F3 LMNA-NTRK1 cells) [nM]	GI50 (Ba/F3 ETV6-NTRK2 cells) [nM]	GI50 [2] [nM]	GI50 [3] [nM]
11	11	8		COc1cc2nccc(Oc3ccc(NC(=O)c4cn(C(C)C)nc(-c5ccc(F)cc5)c4=O)cn3)c2cc1OC [Compound 38, N-(6-((6,7-dimethoxyquinolin-4-yl)oxy)pyridin-3-yl)-6-para-fluorophenyl-2-isopropyl-5-oxo-2,5-dihydropyridazine-4-carboxamide]	55.1		5.7	7.5
18	17	10		COc1cc2nccc(Oc3cnc(NC(=O)c4cn(C(C)C)nc(-c5ccc(F)cc5)c4=O)nc3)c2cc1OC [Compound 39, N-(5-((6,7-dimethoxyquinolin-4-yl)oxy)pyrimidine-2-yl)-6-(4-fluorophenyl)-2-isopropyl-5-oxo-2,5-dihydropyridazine-4-carboxamide]	42.4		8.1	5
7	6	14		COc1cc2nccc(Oc3ncc(NC(=O)c4cn(C(C)C)nc(-c5ccc(F)cc5)c4=O)cn3)c2cc1OC [Compound 40, N-(2-((6,7-dimethoxyquinolin-4-yl)oxy)pyrimidine-5-yl)-6-(4-fluorophenyl)-2-isopropyl-5-oxo-2,5-dihydropyridazine-4-carboxamide]	52.1		9.1	9.1
5				COc1cc2nccc(Oc3ccc(NC(=O)c4cn(C(C)C)nc(-c5ccc(F)cc5)c4=O)nc3)c2cc1OC [Compound 41, N-(5-((6,7-dimethoxyquinolin-4-yl)oxy)pyridin-2-yl)-6-(4-fluorophenyl)-2-isopropyl-5-oxo-2,5-dihydropyridazine-4-carboxamide]				
